These results are taken from patent publication US7781565B2 (priority 2006, dated 2010).

“Also recorded” adds a separate entry of the source.

The subject of this assay is NCI-60 cell lines. In kind it is cell-based, human.
Turning to WLLRGFG, the “Cell Line (NCI-60 cell line the peptide and its motif are associated with)” value is reported as “A498 Renal”.
Consider RDGRAVR, for which the “Cell Line (NCI-60 cell line the peptide is associated with)” value is recorded as “KM-12C Colon”.
For GGSLKWV, the “Cell Line (NCI-60 cell line the peptide and its motif are associated with)” value is on record as “SK-MEL-2 Melanoma”.
Regarding LGGLSPH, the “Cell Line with which the peptide (and its tripeptide motif) is associated” value (shortened to “Cell Line with which the peptide”) is “H322-Lung”.
For the substance RGGRSPS, the “Cell Line (NCI-60 cell line the peptide is associated with)” value is reported as “HT-29 Colon”.
For the substance GVVQAVS, the “Cell Line (NCI-60 cell line the peptide and its motif are associated with)” value is “SK-MEL-5 Melanoma”.
As for RAVGYNA, the “Cell Line (NCI-60 cell line the peptide is associated with)” value was “MALME-3M Melanoma”.
Take SLYGLRW: the “Cell Line (NCI-60 cell line the peptide and its motif are associated with)” value is given as “M14 Melanoma”.
Consider GAVDGSR, for which the “Cell Line with which the peptide” value is “RPMI-8226-Leukemia”.
For LIGRASM, the “Cell Line (NCI-60 cell line the peptide and its motif are associated with)” value is “SK-OV-3-3 Ovarian”.
Same read-out and setting: for ESARGAL the value was “OVCAR-4 Ovarian”.
With RAAGRVG, the “Cell Line (NCI-60 cell line the peptide is associated with)” value is reported as “HCT-15 Colon”.
The same measure, in the same setting: for ALVSVAG the value was “SF-295 CNS”.
LRAGGSY: the “Cell Line (NCI-60 cell line the peptide and its motif are associated with)” value was “IGROV1 Ovarian”.
As to SGVGGRY, the “Cell Line (NCI-60 cell line the peptide and its motif are associated with)” value was “UACC 257 Melanoma”.
For the substance SRLSYRT, the “Cell Line the peptide is associated with (peptide recovered from phage library selection on this NCI-60 cell line)” value is reported as “TK-10 Renal”.
Same read-out and setting: to LLNPARG belongs “SN12C Renal”.
Turning to GGLSPHR, the “Cell Line with which the peptide” value was “H460-Lung”.
Take CPGSGII: the “Cell Line (NCI-60 cell line the peptide is associated with)” value is reported as “LOX-IMVI Melanoma”.
As to NYMGPSA, the “Cell Line with which the peptide” value is reported as “A549-Lung”.
In the case of NNVGGSS, the “Cell Line (NCI-60 cell line the peptide and its motif are associated with)” value was “OVCAR-4 Ovarian”.
As to LAIRGLG, the “Cell Line (NCI-60 cell line the peptide is associated with)” value was “SW620-Colon”.
Take GRVHLMP: the “Cell Line with which the peptide” value is “Hop-92-Lung”.
On the same count and under the same terms, to RHFGLRE belongs “H522-Lung”.
Regarding GLRLGVT, the “Cell Line (NCI-60 cell line the peptide is associated with)” value is recorded as “HT-29 Colon”.
For the substance FFGRVGI, the “Cell Line with which the peptide” value is recorded as “Molt-4-Leukemia”.
As to MSAFGRL, the “Cell Line with which the peptide” value is “EKVX-Lung”.
Turning to FLRSLSL, the “Cell Line (NCI-60 cell line the peptide and its motif are associated with)” value is listed as “SK-MEL-5 Melanoma”.
In the case of DGVSSDY, the “Cell Line (NCI-60 cell line the peptide is associated with)” value is “COLO-205-Colon”.
In the case of TFAGRSL, the “Cell Line (NCI-60 cell line the peptide and its motif are associated with)” value is recorded as “A498 Renal”.
With FSLGSSP, the “Cell Line the peptide is associated with (peptide recovered from phage library selection on this NCI-60 cell line)” value was “UO31 Renal”.
Same read-out and setting: to VHKRAVL belongs “UO31 Renal”.
With LLRRGIG, the “Cell Line (NCI-60 cell line the peptide and its motif are associated with)” value was “SK-MEL-5 Melanoma”.
Regarding GLEGSGG, the “Cell Line with which the peptide” value is recorded as “H23-Lung”.
Consider LRSSMML, for which the “Cell Line (NCI-60 cell line the peptide is associated with)” value is “MALME-3M Melanoma”.
Same read-out and setting: for DTLRSQW the value was “HCT-15 Colon”.
Take FEGGRSG: the “Cell Line (NCI-60 cell line the peptide and its motif are associated with)” value is “M14 Melanoma”.
Consider VGIGAGG, for which the “Cell Line the peptide is associated with (peptide recovered from phage library selection on this NCI-60 cell line)” value was “T-47D Breast”.
As to SGGDGSV, the “Cell Line (NCI-60 cell line the peptide is associated with)” value is “SNB-75 CNS”.
As for LASLGVG, the “Cell Line with which the peptide” value is given as “H23-Lung”.
Take AAVFVRS: the “Cell Line with which the peptide” value is “K-562-Leukemia”.
For the substance GDCGLVG, the “Cell Line (NCI-60 cell line the peptide and its motif are associated with)” value was “PC3 Prostate”.
In the case of DGGGRVG, the “Cell Line the peptide is associated with (peptide recovered from phage library selection on this NCI-60 cell line)” value is recorded as “CAIK-1 Renal”.
The same measure, in the same setting: for TGGLHWY the value was “TK-10 Renal”.
Regarding DLLRYLA, the “Cell Line with which the peptide” value is on record as “H322-Lung”.
With ATGSGSV, the “Cell Line (NCI-60 cell line the peptide and its motif are associated with)” value is listed as “PC3 Prostate”.
Same read-out and setting: to LGGRTIS belongs “DU-145 Prostate”; to AVSGRSL, “M14 Melanoma”.
For AGGGGYH, the “Cell Line the peptide is associated with (peptide recovered from phage library selection on this NCI-60 cell line)” value was “MDA-MB-435-Breast”.
Still for that read-out and setting: to AGLPHRF belongs “UO31 Renal”; to LGVRLAS, “BT-549 Breast”.
With GGLRGVR, the “Cell Line with which the peptide” value is “A549-Lung”.
Same read-out and setting: to LEAGSQL belongs “H226-Lung”.
For AAGRIRP, the “Cell Line (NCI-60 cell line the peptide is associated with)” value was “HCT-15 Colon”.
On the same count and under the same terms, for ARGIVRV the value was “SW620-Colon”.
As for YRGSMVG, the “Cell Line (NCI-60 cell line the peptide is associated with)” value is listed as “COLO-205-Colon”.
GSGRGVA: the “Cell Line with which the peptide” value is listed as “Hop-92-Lung”.
With PYRRGSC, the “Cell Line the peptide is associated with (peptide recovered from phage library selection on this NCI-60 cell line)” value is listed as “MDA-MB-231 Breast”.
Still for that read-out and setting: for FVARLRV the value was “TK-10 Renal”; for MPGSSRP, “RXF393 Renal”.
As to SITRGGL, the “Cell Line (NCI-60 cell line the peptide and its motif are associated with)” value is “DU-145 Prostate”.
For VHRVSGG, the “Cell Line with which the peptide” value is listed as “RPMI-8226-Leukemia”.
Regarding NSQRSSV, the “Cell Line (NCI-60 cell line the peptide and its motif are associated with)” value is listed as “UACC 257 Melanoma”.
DSGLVGG: the “Cell Line (NCI-60 cell line the peptide is associated with)” value is on record as “LOX-IMVI Melanoma”.
WGVLQLE: the “Cell Line (NCI-60 cell line the peptide is associated with)” value is recorded as “LOX-IMVI Melanoma”.
In the case of KGDGSVR, the “Cell Line (NCI-60 cell line the peptide and its motif are associated with)” value was “SK-OV-3-3 Ovarian”.
On to GSVSAGA, for which the “Cell Line (NCI-60 cell line the peptide is associated with)” value is on record as “HT-29 Colon”.
Turning to PAGRMLS, the “Cell Line (NCI-60 cell line the peptide and its motif are associated with)” value was “SK-MEL-2 Melanoma”.
With RREGLRS, the “Cell Line (NCI-60 cell line the peptide and its motif are associated with)” value is “OVCAR-3 Ovarian”; the “Cell Line with which the peptide” value is “H522-Lung”.
As to HVRSSYA, the “Cell Line the peptide is associated with (peptide recovered from phage library selection on this NCI-60 cell line)” value was “HS 578 T Breast”.
VWAGVLL: the “Cell Line with which the peptide” value was “Hop-62-Lung”.
Turning to YDGRLAR, the “Cell Line (NCI-60 cell line the peptide is associated with)” value is listed as “SNB-19 CNS; also recorded: SF-539 CNS”.
GAGVEYF: the “Cell Line the peptide is associated with (peptide recovered from phage library selection on this NCI-60 cell line)” value is on record as “RXF393 Renal”.
In the case of GSVLPVL, the “Cell Line (NCI-60 cell line the peptide and its motif are associated with)” value is reported as “SK-OV-3-3 Ovarian”.
Turning to RGSVGPS, the “Cell Line (NCI-60 cell line the peptide is associated with)” value is listed as “SW620-Colon”.
With GSGSSSR, the “Cell Line the peptide is associated with (peptide recovered from phage library selection on this NCI-60 cell line)” value is listed as “TK-10 Renal”.
Consider MQLRGAV, for which the “Cell Line (NCI-60 cell line the peptide and its motif are associated with)” value is recorded as “OVCAR-4 Ovarian”.
On to RSTLGPS, for which the “Cell Line (NCI-60 cell line the peptide is associated with)” value is listed as “HT-29 Colon”.
For ASVRAGR, the “Cell Line with which the peptide” value is given as “Molt-4-Leukemia”.
Regarding IFGAGLR, the “Cell Line (NCI-60 cell line the peptide is associated with)” value was “LOX-IMVI Melanoma”.
Turning to PGKRGVQ, the “Cell Line with which the peptide” value is recorded as “H460-Lung”.
On the same count and under the same terms, to RLRAASY belongs “RPMI-8226-Leukemia”.
With TAGRLEV, the “Cell Line the peptide is associated with (peptide recovered from phage library selection on this NCI-60 cell line)” value is on record as “RXF393 Renal”.
Still for that read-out and setting: to RAHGLVC belongs “RXF393 Renal”.
Regarding EFAVAGR, the “Cell Line with which the peptide” value is “SR Leukemia”.
Take LLGIGGS: the “Cell Line (NCI-60 cell line the peptide and its motif are associated with)” value was “SK-MEL-28 Melanoma”.
With GVSTGFT, the “Cell Line with which the peptide” value was “K-562-Leukemia”.
Take QVRRGVV: the “Cell Line (NCI-60 cell line the peptide is associated with)” value is listed as “HT-29 Colon”.
In the case of DAVRGPS, the “Cell Line (NCI-60 cell line the peptide and its motif are associated with)” value is “IGROV1 Ovarian”.
On the same count and under the same terms, for VDVGGAG the value was 786-0 Renal.
As to GGRRGTS, the “Cell Line the peptide is associated with (peptide recovered from phage library selection on this NCI-60 cell line)” value was “MCF-7 Breast”.
Take YVGGRLR: the “Cell Line (NCI-60 cell line the peptide and its motif are associated with)” value is listed as “OVCAR-5 Ovarian”.
Take MGMSGPS: the “Cell Line with which the peptide” value was “CCRF-CEM Leukemia”.
On to VLSAVSS, for which the “Cell Line (NCI-60 cell line the peptide is associated with)” value is reported as “SNB-19 CNS; also recorded: SF-539 CNS”.
Turning to LRIARGV, the “Cell Line (NCI-60 cell line the peptide is associated with)” value is reported as “COLO-205-Colon”.
The same measure, in the same setting: for LGAGEGD the value was “SNB-75 CNS”.
Consider GGALLRG, for which the “Cell Line with which the peptide” value is given as “Hop-92-Lung”.
On the same count and under the same terms, to SIGPSTN belongs “H460-Lung”; to SRLSYRG, “RPMI-8226-Leukemia”; to GAGGMAR, “RPMI-8226-Leukemia”.
Consider EVASGLV, for which the “Cell Line (NCI-60 cell line the peptide and its motif are associated with)” value is “SK-MEL-2 Melanoma”.
For the substance GAVLTSC, the “Cell Line the peptide is associated with (peptide recovered from phage library selection on this NCI-60 cell line)” value was “BT-549 Breast”.
For the substance SGVSISC, the “Cell Line (NCI-60 cell line the peptide and its motif are associated with)” value was “IGROV1 Ovarian”.
With GLVGFTG, the “Cell Line with which the peptide” value is on record as “Hop-62-Lung”.
On to GRGVGTD, for which the “Cell Line (NCI-60 cell line the peptide is associated with)” value is “HT-29 Colon”.
IGVLASA: the “Cell Line (NCI-60 cell line the peptide and its motif are associated with)” value was “SK-MEL-28 Melanoma”.
Regarding GLVSAFY, the “Cell Line with which the peptide” value is listed as “Hop-62-Lung”.
As to HGYRAGG, the “Cell Line with which the peptide” value is “Hop-62-Lung”.
Take GLVGWGI: the “Cell Line the peptide is associated with (peptide recovered from phage library selection on this NCI-60 cell line)” value is “BT-549 Breast”.
For ASAVSGR, the “Cell Line (NCI-60 cell line the peptide is associated with)” value is listed as “HT-29 Colon”.
Turning to GRLRLTD, the “Cell Line with which the peptide” value is “HL-60-Leukemia”.
For the substance TLGRLSS, the “Cell Line (NCI-60 cell line the peptide and its motif are associated with)” value is listed as “DU-145 Prostate”.
Consider LLRSAAP, for which the “Cell Line with which the peptide” value is “RPMI-8226-Leukemia”.
